The values that follow come from US20250025493A1, “GLUCOHEXAOSE AND PREPARATION METHOD THEREFOR AND APPLICATION THEREOF, AND HAIR REGENERATION PREPARATION” (UNIVERSITY OF MACAU, priority 2021, published 2025).

Data set [1] has as its system Ccl5 gene in mouse bone marrow-derived macrophages (mBMDM). Briefly: Verification experiment, real-time fluorescence quantitative PCR of Ccl5 gene expression in macrophages. The class given is cell-based, mouse (C57BL/6J). Particulars: 50 ug/ml, FIG. 2. The text has this: To verify the experimental results of eukaryotic mRNA sequencing analysis, a real-time fluorescence quantitative PCR experiment was used to determine the expression level of Ccl5 gene in macrophages stimulated by the gulcohexaose. The gulcohexaose prepared in example I was used to perform an induction and activation experiment on mouse bone marrow-derived macrophages (mBMDM, primary cells extracted from C57BL/6J mice by laboratory methods): • mouse bone marrow-derived monocytes (5×10^6 cells/10 cm petri dish) were seeded in 10 cm petri dishes and cultured using L929 cell culture supernatant obtained after 7 days of culture+RPMI-1640 medium+10% fetal bovine serum+1% penicillin-streptomycin in a 37° C., 5% CO2 incubator. […] After co-incubation for different time periods, the total RNA was extracted from the samples respectively, and the expression levels of Ccl5 cytokine in mouse bone marrow-derived macrophages before and after the stimulation by the gulcohexaose were detected by real-time quantitative PCR.

In data set [2] the test system is hair follicles in back unhairing area, androgenetic alopecia (AGA) mouse model. Briefly: Animal experiment, subcutaneous injection, mouse model of androgenetic alopecia (AGA). It is filed as in vivo, C57BL/6J mice. Particulars: subcutaneous injection on D-0, D-7, D-14, FIG. 4. An excerpt: (§1) The method is as follows: healthy male 7-week-old C57BL/6J mice were subjected to back unhairing treatment, wherein the hair on the back area was completely removed using an unhairing cream (Veet); starting from D-0, testosterone was topically applied to the back unhairing area of the mice every day to simulate androgenetic alopecia (AGA), and the hair growth of the mice was photographed for recording; the gulcohexaose was subcutaneously injected to the back unhairing area of the mice every seven days (D-0, D-7, D-14), designated as OG6 group; a blank group (no applying) was set up, designated as a control group; and the hair growth on the back of the mice was observed on day 21.

Data set [3] shares this test system. Briefly: Animal experiment, direct application, mouse model of androgenetic alopecia (AGA). The class given is in vivo, C57BL/6J mice. Particulars: direct topical application on D-0, D-7, D-14, FIG. 3.
From the text: The gulcohexaose sample prepared in example 1 was investigated for the biological effect in promoting hair follicle regeneration.
The method is as follows: healthy male 7-week-old C57BL/6J mice were subjected
as §1, with “to” for “The method is as follows: healthy male 7-week-old C57BL/6J mice were subjected to”, “establish a mouse model of” for “simulate”, “directly and topically applied” for “subcutaneously injected”

Data set [4] concerns mouse bone marrow-derived macrophages (mBMDM). Briefly: Induction and activation experiment on macrophages, eukaryotic mRNA sequencing of released cytokines. It is filed as cell-based, mouse (C57BL/6J). The note with it: 50 ug/ml, 24 h co-incubation, vs PBS group, FIG. 1. How it is done: The gulcohexaose sample prepared in example 1 above was used to perform an induction and activation experiment on mouse bone marrow-derived macrophages (mBMDM, primary cells extracted from C57BL/6J mice by laboratory methods):
Mouse bone marrow-derived monocytes (5×10^6 cells/10 cm petri dish) were seeded in 10 cm petri dishes and cultured using L929 cell culture supernatant obtained after 7 days of culture+RPMI-1640 medium+10% fetal bovine serum+1% penicillin-streptomycin in a 37° C., 5% CO2 incubator. After cell adherence, the cells were co-incubated with 50 ug/ml gulcohexaose for 24 h, designated as OG6 group, while a blank group (an experimental group to which the gulcohexaose was not added and to which an equal volume (10 μl) of PBS buffer (mainly consisted of Na2HPO4, KH2PO4, NaCl and KCl) was added) was set up, designated as PBS group. After 24 h of co-incubation, the total RNA was extracted from the sample using TRIzol (Invitrogen), eukaryotic mRNA sequencing experiment analysis and bioinformatics analysis were performed, and the difference between the expression level of cytokines released by the mouse bone marrow-derived macrophages stimulated by the gulcohexaose and the expression level of cytokines released in the blank group was compared. This experiment was repeated twice.

The test system of data set [5] is androgenetic alopecia in mouse models. Briefly: Treatment of androgenetic alopecia in mouse models, summary over all administration routes. Particulars: direct skin application, subcutaneous injection or microneedle release administration. The class given is in vivo, mice. The text has this:
The glucohexaose used in the present disclosure can be used to treat androgenetic alopecia in mouse models via any one of direct skin application administration, subcutaneous injection administration and microneedle release administration, and the hair formation is observed.

The test system of data set [6] is hair follicles in back unhairing area, androgenetic alopecia (AGA) mouse model. As to the kind of experiment: Animal experiment, microneedle administration, mouse model of androgenetic alopecia (AGA). The class given is in vivo, C57BL/6J mice. Particulars: microneedle administration on D-0, D-7, D-14, FIG. 5.
From the text: as §1, with “(AGA) for modeling,” for “(AGA),”, “microneedle administered” for “subcutaneously injected”

Turning to Man-Man-Man-Man-Glc-Glc [gulcohexaose], in data set [1] (1 h, 12 h and 24 h, vs PBS group), the “expression level of Ccl5 cytokine in macrophages (real-time quantitative PCR)” value is listed as “rapidly upregulate the expression level of Ccl5 cytokine”. The “expression level of Ccl5 cytokine in macrophages after 24 hours of stimulation” value in data set [1] (24 h) is listed as “high expression level of Ccl5 cytokine in macrophages maintained”. In addition, the “hair growth on day 21 compared with blank group” value in data set [2] (day 21) and in data set [3] (day 21) was “obviously superior to that on the mice in the blank group” throughout. Further, the “hair follicle stage in back treatment area compared with blank group” value in data set [2] (testosterone-induced AGA mice) is “have entered a growth period from a resting period and grew hair”; in data set [3] (testosterone-induced AGA mice) it was “have entered a growth period from a resting period and grew hair”; in data set [6] (testosterone-induced AGA mice) it was “the first to enter a growth period from a resting period and are the first to grow hair”. Also, the “expression level of cytokines released by macrophages versus blank group (mRNA sequencing)” value in data set [4] is “can specifically activate macrophages to release a cytokine network mainly comprising CCL5 chemotactic factors”. Further, the adverse reactions entry in data set [5] was “without any serious adverse reactions”. Besides, the “growth of hair on the back of mice” value in data set [5] is “can effectively promote the growth of hair on the back of mice”. In data set [6] (observed day 21), the “hair growth at treated part compared with blank group” value is listed as “obviously denser than that on the mice in the blank group”.
